Key:
Type in all cases: biochemical
[1] = biological target: T1, K-Ras G12D (Homo sapiens, UniProt P01116, G12D); experiment: HTRF resonance energy transfer assay, K-Ras G12D / SOS1 interaction; conditions: HTRF assay of Example 5; read-out: IC50 against K-Ras G12D
T1 construct: made in house; host or cells: E. coli BL21 (DE3)
Description: This assay can be also used to assess a selective inhibition or reduction of signaling output of a mutant Ras protein relative to a wildtype, or relative to a different mutant Ras protein. For example, the equilibrium interaction of wildtype Kras or K-Ras mutant (e.g., wildtype or a mutant thereof) with SOS1 (e.g., hSOS1) can be assessed as a proxy or an indication for a subject compound's ability to bind and inhibit Ras protein. HTRF assay detects from (i) a fluorescence resonance energy transfer (FRET) donor (e.g., antiGST-Europium) that is bound to GST-tagged K-Ras mutant to (ii) a FRET acceptor (e.g., anti-6His-XL665) bound to a His-tagged hSOS1.
The assay buffer can contain˜5 mM HEPES pH 7.4, ˜150 mM NaCl, ˜ 1 mM DTT, 0.05% BSA and 0.0025%(v/v) Igepal. A Ras working solution is prepared in an assay buffer containing typically a suitable amount of the protein construct (e.g., GST-tagged K-Ras mutant) and the FRET donor (e.g., antiGST-Eu(K) from Cisbio, France). A SOS1 working solution is prepared in an assay buffer containing suitable amount of the protein construct (e.g., His-hSOS1) and the FRET acceptor (e.g., anti-6His-XL665 from Cisbio, France). A suitable amount of the protein construct will depend on the range of activity or range of IC50 values being detected or under investigation. For detecting IC50 within a range of 500 nM, the protein constructs of the same range of molarity can be utilized.
A fixed volume of DMSO with or without test compound is transferred into a 384-well plate. Ras working solution is added to all wells of the test plate. SOS1 working solution is added to all wells except for those that are subsequently filled the inhibitor control solution. Upon incubation for about 10 minutes or longer, the fluorescence is measured with a M1000Pro plate reader (Tecan) using HTRF detection (excitation 337 nm, emission 1: 620 nm, emission 2: 665 nm). Compounds are tested in duplicates at different concentrations (for example, 10 μM, 2.5 μM, 0.63 μM, 0.16 μM, 0.04 μM, 0.01 μM test compound). The ratiometric data (i.e., emission 2 divided by emission 1) is used to calculate IC50 values against Ras using GraphPad Prism (GraphPad software). Following this general procedure, samples were tested with or without a subject compound disclosed herein including compounds exemplified in Table 1 to assess their abilities to inhibit a K-Ras mutant relative to another mutant or WT. Signaling output measured in terms of IC50 values can be obtained, a ratio of IC50 against one mutant relative to another mutant can be calculated. For instance, a selective reduction of K-Ras G12D signaling output can be evidenced by a ratio greater than one. In particular, a selective reduction of K-Ras G12D signaling relative to K-Ras WT signaling is evidenced as the ratio of IC50 (against K-Ras WT) to IC50 (against K-Ras G12D) is greater than 1.

[2] = biological target: T2, K-Ras G12S (Homo sapiens, UniProt P01116, G12S); experiment: HTRF resonance energy transfer assay, K-Ras G12S / SOS1 interaction; conditions: HTRF assay of Example 5; read-out: IC50 against K-Ras G12S
T2 construct: made in house; host or cells: E. coli BL21 (DE3)
Outline: (§1)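 Buffer about 5 mM HEPES pH 7.4 with ~150 mM NaCl, ~1 mM DTT, 0.05% BSA, 0.0025% (v/v) Igepal. Protein constructs used at molarity matching the IC50 range studied (e.g. ~500 nM). FRET between tagged K-Ras and hSOS1 measured after short incubation.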

[3] = biological target: T3, K-Ras G12V (Homo sapiens, UniProt P01116, G12V); experiment: HTRF resonance energy transfer assay, K-Ras G12V / SOS1 interaction; conditions: HTRF assay of Example 5; read-out: IC50 against K-Ras G12V
T3 construct: made in house; host or cells: E. coli BL21 (DE3)
Outline: as §1

[4] = biological target: T4, K-Ras WT (Homo sapiens, UniProt P01116); experiment: HTRF resonance energy transfer assay, K-Ras WT / SOS1 interaction; conditions: HTRF assay of Example 5; read-out: IC50 against K-Ras WT
T4 construct: made in house; host or cells: E. coli BL21 (DE3)
Outline: as §1

Measured: IC50

T1 sequence (P01116 1-188 isoform P01116-2 G12D): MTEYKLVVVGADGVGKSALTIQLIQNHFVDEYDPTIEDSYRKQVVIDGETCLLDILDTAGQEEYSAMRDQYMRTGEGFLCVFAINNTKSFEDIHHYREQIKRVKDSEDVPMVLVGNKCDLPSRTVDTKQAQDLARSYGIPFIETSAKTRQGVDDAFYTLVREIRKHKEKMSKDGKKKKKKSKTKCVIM
T4 sequence (P01116 1-188 isoform P01116-2): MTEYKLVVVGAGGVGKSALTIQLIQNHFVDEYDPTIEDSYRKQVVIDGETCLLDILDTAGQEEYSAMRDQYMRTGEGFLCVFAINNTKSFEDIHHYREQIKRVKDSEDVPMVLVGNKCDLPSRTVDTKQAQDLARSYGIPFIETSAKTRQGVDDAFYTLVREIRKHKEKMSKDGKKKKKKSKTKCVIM
T2 sequence (P01116 1-188 isoform P01116-2 G12S): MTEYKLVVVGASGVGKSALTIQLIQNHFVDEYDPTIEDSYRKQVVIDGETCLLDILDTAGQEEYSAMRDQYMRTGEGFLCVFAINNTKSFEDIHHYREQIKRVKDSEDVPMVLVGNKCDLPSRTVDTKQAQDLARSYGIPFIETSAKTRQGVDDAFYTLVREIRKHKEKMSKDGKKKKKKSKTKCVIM
T3 sequence (P01116 1-188 isoform P01116-2 G12V): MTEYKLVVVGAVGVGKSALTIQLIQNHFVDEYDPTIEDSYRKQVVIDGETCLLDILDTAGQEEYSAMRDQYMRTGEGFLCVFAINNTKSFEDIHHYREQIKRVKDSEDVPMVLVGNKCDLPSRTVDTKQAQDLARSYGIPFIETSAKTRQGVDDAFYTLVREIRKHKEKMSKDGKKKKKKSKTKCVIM

N#Cc1c(N)sc2c(F)ccc(-c3c(Cl)c4c5c(nc(OC[C@@]67CCCN6C[C@H](F)C7)nc5c3F)N(CC(F)F)C(CO)CO4)c12 (stereo partly drawn) [Compound 840, 2-amino-4-(8-chloro-4-(2,2-difluoroethyl)-10-fluoro-2-(((2R,7aS)-2-fluorotetrahydro-1H-pyrrolizin-7a(5H)-yl)methoxy)-5-(hydroxymethyl)-5,6-dihydro-4H-[1,4]oxazepino[5,6,7-de]quinazolin-9-yl)-7-fluorobenzo[b]thiophene-3-carbonitrile]
< 100 nM: all assays above

C#C[C@H]1COc2c(Cl)c(-c3ccc(F)c4sc(N)c(C#N)c34)c(F)c3nc(OC[C@@]45CCCN4C[C@H](F)C5)nc(c23)N1C1CCOC1 (stereo partly drawn) [Compound 843, 2-amino-4-((5S)-8-chloro-5-ethynyl-10-fluoro-2-(((2R,7aS)-2-fluorotetrahydro-1H-pyrrolizin-7a(5H)-yl)methoxy)-4-(tetrahydrofuran-3-yl)-5,6-dihydro-4H-[1,4]oxazepino[5,6,7-de]quinazolin-9-yl)-7-fluorobenzo[b]thiophene-3-carbonitrile]
< 100 nM: all assays above

CC(O)C1COc2c(Cl)c(-c3ccc(F)c4sc(N)c(C#N)c34)c(F)c3nc(OC[C@@]45CCCN4C[C@H](F)C5)nc(c23)N1CC1CNC1 (stereo partly drawn) [Compound 848, 2-amino-4-(4-(azetidin-3-ylmethyl)-8-chloro-10-fluoro-2-(((2R,7aS)-2-fluorotetrahydro-1H-pyrrolizin-7a(5H)-yl)methoxy)-5-(1-hydroxyethyl)-5,6-dihydro-4H-[1,4]oxazepino[5,6,7-de]quinazolin-9-yl)-7-fluorobenzo[b]thiophene-3-carbonitrile]
< 100 nM: all assays above

C[C@H](Oc1nc2c3c(c(Cl)c(-c4ccc(F)c5sc(N)c(C#N)c45)c(F)c3n1)OCCN2C1CC2(CNC2)C1)[C@@H]1CCCN1C [Compound 856, 2-amino-4-(8-chloro-10-fluoro-2-((S)-1-((S)-1-methylpyrrolidin-2-yl)ethoxy)-4-(2-azaspiro[3.3]heptan-6-yl)-5,6-dihydro-4H-[1,4]oxazepino[5,6,7-de]quinazolin-9-yl)-7-fluorobenzo[b]thiophene-3-carbonitrile]
< 100 nM: all assays above

N#Cc1c(N)sc2c(F)ccc(-c3c(Cl)c4c5c(nc(OC[C@@]67CCCN6C[C@H](F)C7)nc5c3F)N([C@H]3CCNC3)CCO4)c12 [Compound 858, 2-amino-4-(8-chloro-10-fluoro-2-(((2R,7aS)-2-fluorotetrahydro-1H-pyrrolizin-7a(5H)-yl)methoxy)-4-((S)-pyrrolidin-3-yl)-5,6-dihydro-4H-[1,4]oxazepino[5,6,7-de]quinazolin-9-yl)-7-fluorobenzo[b]thiophene-3-carbonitrile]
< 100 nM: all assays above

Nc1nc2c(-c3c(Cl)c4c5c(nc(OC[C@@]67CCCN6C[C@H](F)C7)nc5c3F)N(C3CCNCC3)CCO4)ccc(F)c2s1 [Compound 898, 4-(8-chloro-10-fluoro-2-(((2R,7aS)-2-fluorotetrahydro-1H-pyrrolizin-7a(5H)-yl)methoxy)-4-(piperidin-4-yl)-5,6-dihydro-4H-[1,4]oxazepino[5,6,7-de]quinazolin-9-yl)-7-fluorobenzo[d]thiazol-2-amine]
< 100 nM: all assays above

CN(CCCN1CCOc2c(Cl)c(-c3ccc(F)c4sc(N)c(C#N)c34)c(F)c3nc(OC[C@@]45CCCN4C[C@H](F)C5)nc1c23)C(=O)[C@H]1CN1 [Compound 908, (2R)-N-(3-(9-(2-amino-3-cyano-7-fluorobenzo[b]thiophen-4-yl)-8-chloro-10-fluoro-2-(((2R,7aS)-2-fluorotetrahydro-1H-pyrrolizin-7a(5H)-yl)methoxy)-5,6-dihydro-4H-[1,4]oxazepino[5,6,7-de]quinazolin-4-yl)propyl)-N-methylaziridine-2-carboxamide]
< 100 nM: all assays above

N#Cc1c(N)sc2c(F)ccc(-c3c(Cl)c4c5c(nc(OC[C@@]67CCCN6C[C@H](F)C7)nc5c3F)N(C3CCOC3)C(C3(C#N)CC3)CO4)c12 (stereo partly drawn) [Compound 913, 2-amino-4-(8-chloro-5-(1-cyanocyclopropyl)-10-fluoro-2-(((2R,7aS)-2-fluorotetrahydro-1H-pyrrolizin-7a(5H)-yl)methoxy)-4-(tetrahydrofuran-3-yl)-5,6-dihydro-4H-[1,4]oxazepino[5,6,7-de]quinazolin-9-yl)-7-fluorobenzo[b]thiophene-3-carbonitrile]
< 100 nM: all assays above

CNCCCN1c2nc(OC[C@@]34CCCN3C[C@H](F)C4)nc3c(F)c(-c4ccc(F)c5sc(N)c(C#N)c45)c(Cl)c(c23)OCC1CC#N (stereo partly drawn) [Compound 928, 2-amino-4-(8-chloro-5-(cyanomethyl)-10-fluoro-2-(((2R,7aS)-2-fluorotetrahydro-1H-pyrrolizin-7a(5H)-yl)methoxy)-4-(3-(methylamino)propyl)-5,6-dihydro-4H-[1,4]oxazepino[5,6,7-de]quinazolin-9-yl)-7-fluorobenzo[b]thiophene-3-carbonitrile]
< 100 nM: all assays above

N#Cc1c(N)sc2c(F)ccc(-c3c(Cl)c4c5c(nc(OC[C@@]67CCCN6C[C@H](F)C7)nc5c3F)N(C3CCCCN(C(=O)C5CN5)C3)CCO4)c12 (stereo partly drawn) [Compound 934, 2-amino-4-(4-(1-(aziridine-2-carbonyl)azepan-3-yl)-8-chloro-10-fluoro-2-(((2R,7aS)-2-fluorotetrahydro-1H-pyrrolizin-7a(5H)-yl)methoxy)-5,6-dihydro-4H-[1,4]oxazepino[5,6,7-de]quinazolin-9-yl)-7-fluorobenzo[b]thiophene-3-carbonitrile]
< 100 nM: all assays above

C#Cc1c(F)ccc2cc(O)cc(-c3nc4c5c(nc(OC[C@@]67CCCN6C[C@H](F)C7)nc5c3F)N(C3CCNC3)CCO4)c12 (stereo partly drawn) [Compound 939, 5-ethynyl-6-fluoro-4-(4-fluoro-2-(((2R,7aS)-2-fluorotetrahydro-1H-pyrrolizin-7a(5H)-yl)methoxy)-10-(pyrrolidin-3-yl)-9,10-dihydro-8H-7-oxa-1,3,6,10-tetraazacyclohepta[de]naphthalen-5-yl)naphthalen-2-ol]
< 100 nM: all assays above

CC1Oc2c(Cl)c(-c3ccc(F)c4sc(N)c(C#N)c34)c(F)c3nc(OC[C@@]45CCCN4C[C@H](F)C5)nc(c23)N(CC(F)F)C1CC#N (stereo partly drawn) [Compound 968, 2-amino-4-(8-chloro-5-(cyanomethyl)-4-(2,2-difluoroethyl)-10-fluoro-2-(((2R,7aS)-2-fluorotetrahydro-1H-pyrrolizin-7a(5H)-yl)methoxy)-6-methyl-5,6-dihydro-4H-[1,4]oxazepino[5,6,7-de]quinazolin-9-yl)-7-fluorobenzo[b]thiophene-3-carbonitrile]
< 100 nM: all assays above

Reference: US12209102B2, “Heterocyclic compounds and uses thereof” (Kumquat Biosciences Inc., priority 2022, dated 2025)
